Earlier results, collected in US20210292807A1, “METHOD FOR TESTING ANTIMICROBIAL SUSCEPTIBILITY” (priority 2017, published 2021).
Where two headings read alike, the source gives them in different places.

System: Klebsiella isolates
Conditions: cited from earlier work

C[C@@H](O)[C@H]1C(=O)N2C(C(=O)O)=C(S[C@@H]3CN[C@H](C(=O)N(C)C)C3)[C@H](C)[C@H]12 [meropenem]
MIC, high-level resistance end of the collection's susceptibility phenotypes (48 Klebsiella isolates): > 256 µg/mL
MIC, highly-susceptible end of the collection's susceptibility phenotypes (48 Klebsiella isolates): < 1.006 µg/mL
Referring Lab's MIC (isolate 194, Sweden, VIM): ≥32 mg/L
Referring Lab's MIC (isolate 374, Sweden, VIM): >32 mg/L
Referring Lab's MIC (isolate 3354, Australia): ≤≤0.25 mg/L
Referring Lab's MIC (isolate 10924, Sweden, KPC): 4 mg/L
Referring Lab's MIC (isolate 18397, Australia): ≤≤0.25 mg/L
Referring Lab's MIC (isolate 43288, Australia): ≤≤0.25 mg/L
Referring Lab's MIC (isolate 43292, Australia): ≤≤0.25 mg/L
Referring Lab's MIC (isolate 43358, Australia): ≤≤0.25 mg/L
Referring Lab's MIC (isolate 43854, Australia): ≤≤0.25 mg/L
Referring Lab's MIC (isolate 44271, Australia): ≤≤0.25 mg/L
Referring Lab's MIC (isolate 51575, Sweden, ESBL): 0.064 mg/L
Referring Lab's MIC (isolate 70708, Sweden, KPC): 16 mg/L
Referring Lab's MIC (isolate 71076, Sweden, KPC): ≥32 mg/L
Referring Lab's MIC (isolate 200822, Sweden, KPC): 8 mg/L
Referring Lab's MIC (isolate 270902, England): 0.125 mg/L
Referring Lab's MIC (isolate 500638, Sweden, pAmpC): ≤0.25 mg/L
Referring Lab's MIC (isolate 515870, Sweden, ESBL): 0.125 mg/L
Referring Lab's MIC (isolate 2440606, England): ≤0.06 mg/L
Referring Lab's MIC (isolate 2880622, England): ≤0.06 mg/L
Referring Lab's MIC (isolate 2880654, England, KPC): 4 mg/L
Referring Lab's MIC (isolate 2890369, England): 1 mg/L
Referring Lab's MIC (isolate 2980639, England): 1 mg/L
Referring Lab's MIC (isolate 3000770, England, NDM-1): >32 mg/L
Referring Lab's MIC (isolate 3040820, England, pAmpC): ≤0.06 mg/L
Referring Lab's MIC (isolate 3080800, England, KPC): >32 mg/L
Referring Lab's MIC (isolate ATCC 700603, USA): ≤≤0.25 mg/L
Referring Lab's MIC (isolate ATCC BAA 1705, USA, KPC): 8 mg/L
Referring Lab's MIC (isolate ATCC BAA 1706, USA): ≤≤0.25 mg/L
Referring Lab's MIC (isolate K1, Australia, OXA-181): 64 mg/L
Referring Lab's MIC (isolate K2, Australia, OXA-181): 64 mg/L
Referring Lab's MIC (isolate K8, Australia, NDM-1): >256 mg/L
Referring Lab's MIC (isolate K14, Australia, KPC): 256 mg/L
Referring Lab's MIC (isolate K16, Australia, IMP - 4): 2 mg/L
Referring Lab's MIC (isolate K23, Australia, IMP - 4): 0.5 mg/L
Referring Lab's MIC (isolate KS1, Sri Lanka, OXA-181): 1 mg/L
Referring Lab's MIC (isolate KS2, Sri Lanka, OXA-181): ≥32 mg/L
Referring Lab's MIC (isolate KS17, Sri Lanka, OXA-181): ≥32 mg/L
Referring Lab's MIC (isolate KS23, Sri Lanka, OXA-181): ≥32 mg/L
Referring Lab's MIC (isolate N17, Sweden, NDM-1): ≥32 mg/L
